Reference: publication PMC6150413 (Molecules : A Journal of Synthetic Chemistry and Natural …, 2017)
Ends that are not written are not given here. Peptide text beside a SMILES is read from it.

Legend:
E. coli ATCC 25922 = settings: ATCC 25922, 2 h
Method: (§1) The antimicrobial activities of VIP and its analogues were tested against S. aureus ATCC 25923 and E. coli ATCC 25922 according to the method reported by Wani et al. with slight modification. The final peptide concentrations ranged from 0.5 to 256 μM. The tests were performed in triplicate using 4 replicates for each experiment. In addition, S. aureus ATCC 25923 and E. coli ATCC 25922 (2 × 10^6 CFU/mL) were treated with natural VIP and VIP8 at MIC for 2 h. […] The haemolytic activity of VIP and VIP derivatives were measured using porcine erythrocytes according to previous method. MTT (3-[4,5 dimethylthiozol-2-yl]-2,5-diphenyltetrazolium bromide) was used to determine the cytotoxicity of VIP and its analogue on porcine intestinal epithelial cells IPEC-J2. Stable experiments were conducted with reference to the literature with slightly changes. First, the pH of the mediums was adjusted to acidic (pH 4.0, pH 5.0, and pH 6.0) and basic (pH 8.0, pH 9.0, and pH 10.0) conditions. To investigate the effects of ion strength, the bacterial mediums were supplemented with different concentrations of NaCl (20 mM, 60 mM, and 180 mM) or MgCl2 (1 mM, 25 mM, and 50 mM). Then, bacteria were incubated with VIP, VIP analogues 2 and 8, respectively. After 3 h of incubation, bacterial viability was measured with a Synergy HT multimode reader (BioTek, Winooski, VT, USA) at 600 nm.
(§2) Both the agar diffusion test and modified broth microdilution method were used to evaluate the antimicrobial activity of recombinant expressed VIP8. For the Oxford cup agar diffusion, the sample was added to an Oxford cup, which was then placed on a Mueller-Hinton agar plate containing 1 × 10^5 colony-forming units of S. aureus […]. Chemically-synthesized VIP8 and ampicillin were used as the positive control. The minimal inhibition concentration was determined by the method reported by Wani et al..

S. aureus ATCC 25923 = settings: ATCC 25923, 2 h
Method: as §1, §2

[1] = design: method as in PMID 9038346; settings: salt from 50 to 125 mmol/L; cited from earlier work
E. coli = settings: cited from earlier work
P. aeruginosa = settings: cited from earlier work
S. aureus = settings: cited from earlier work

With CC[C@H](C)[C@H](NC(=O)[C@H](CO)NC(=O)[C@H](CC(N)=O)NC(=O)[C@H](CC(C)C)NC(=O)[C@H](Cc1ccc(O)cc1)NC(=O)[C@H](CCCCN)NC(=O)[C@H](CCCCN)NC(=O)[C@@H](NC(=O)[C@H](C)NC(=O)[C@H](CCSC)NC(=O)[C@H](CCC(N)=O)NC(=O)[C@H](CCCCN)NC(=O)[C@H](CCCNC(=N)N)NC(=O)[C@H](CC(C)C)NC(=O)[C@H](CCCNC(=N)N)NC(=O)[C@@H](NC(=O)[C@H](Cc1ccc(O)cc1)NC(=O)[C@H](CC(N)=O)NC(=O)[C@H](CCCCN)NC(=O)[C@@H](NC(=O)[C@H](Cc1ccccc1)NC(=O)[C@@H](NC(=O)[C@H](C)NC(=O)[C@H](CCCCN)NC(=O)[C@H](CO)NC(=O)[C@@H](N)Cc1c[nH]cn1)C(C)C)[C@@H](C)O)[C@@H](C)O)C(C)C)C(=O)N[C@@H](CC(C)C)C(=O)N[C@@H](CC(N)=O)C(=O)O [VIP2] (H-HSKAVFTKNYTRLRKQMAVKKYLNSILN-OH) the “MBC (minimum bactericidal concentration)” value (E. coli ATCC 25922) was 32 µM, the “MIC (minimum inhibitory concentration)” value (E. coli ATCC 25922) was 16 µM and the “MBC (minimum bactericidal concentration)” value (S. aureus ATCC 25923) was 128 µM. The “MIC (minimum inhibitory concentration)” value (S. aureus ATCC 25923) was 64 µM and the “Cytotoxicity (in words)” value (3T3-L1 cells) was “no cytotoxicity”.

With CC[C@H](C)[C@H](NC(=O)[C@H](C)NC(=O)[C@H](C)NC(=O)[C@H](CC(C)C)NC(=O)[C@H](Cc1ccc(O)cc1)NC(=O)[C@H](CCCNC(=N)N)NC(=O)[C@H](CCCNC(=N)N)NC(=O)[C@@H](NC(=O)[C@H](C)NC(=O)[C@H](CC(C)C)NC(=O)[C@H](CCC(N)=O)NC(=O)[C@H](CCCNC(=N)N)NC(=O)[C@H](CCCNC(=N)N)NC(=O)[C@H](CC(C)C)NC(=O)[C@H](CCCNC(=N)N)NC(=O)[C@@H](NC(=O)[C@H](Cc1ccc(O)cc1)NC(=O)[C@H](CC(N)=O)NC(=O)[C@H](C)NC(=O)[C@@H](NC(=O)[C@@H](N)Cc1ccccc1)[C@@H](C)O)[C@@H](C)O)C(C)C)C(=O)N[C@@H](CC(C)C)C(=O)NCC(=O)N[C@@H](CCCNC(=N)N)C(=O)N[C@@H](CCCNC(=N)N)C(=O)O [VIP8] (H-FTANYTRLRRQLAVRRYLAAILGRR-OH) the “MBC (minimum bactericidal concentration)” value (E. coli ATCC 25922) was 4 µM, the “MIC (minimum inhibitory concentration)” value (E. coli ATCC 25922) was 2 µM and the “MBC (minimum bactericidal concentration)” value (S. aureus ATCC 25923) was 4 µM. For the same compound, the “MIC (minimum inhibitory concentration)” value (S. aureus ATCC 25923) was 2 µM and the “Cytotoxicity (in words)” value (3T3-L1 cells) was “no cytotoxicity”.

For “human β-defensin 1 (DHYNCVSSGGQCLYSACPIFTKIQGTCYRGKAKCCK; ends and bridges not checked; cysteine pairing not given here; UniProt P60022 33-68, looked up) [hBD-1, human β-defensin quoted from the literature]”, the “Activity remaining at raised salt concentration” value [1] is given as 12%.

For “human β-defensin 4 (EFELDRICGYGTARCRKKCRSQEYRIGRCPNTYACCLRKWDESLLNRTKP; ends and bridges not checked; cysteine pairing not given here; UniProt Q8WTQ1 23-72, looked up) [hBD-4, human β-defensin quoted from the literature]”, the “Antimicrobial activity at high concentrations of NaCl” value (“Antimicrobial activity” below) (E. coli) is listed as “attenuated”, the “Antimicrobial activity” value (P. aeruginosa) is listed as “attenuated” and the “Antimicrobial activity” value (S. aureus) is listed as “attenuated”.
